Results as given in ChEMBL document CHEMBL1143540, “Synthesis and in vivo antihyperglycemic activity of 5-(1H-pyrazol-3-yl)methyl-1H-tetrazoles” (2005).

Tested on: Rattus norvegicus
Test: Percent fall in blood glucose level in male Sprague-Dawley rats when at 100 mg/kg dose was calculated by AUC method
Format: functional

| SMILES | Activity [%] |
| --- | --- |
| Clc1ccc(-c2cc(Cc3nnn[nH]3)[nH]n2)cc1 | 10.8 |
| CSc1ccc(-c2cc(Cc3nnn[nH]3)[nH]n2)cc1 | 6.06 |
| c1csc(-c2cc(Cc3nnn[nH]3)n[nH]2)c1 | 21.4 |
| CN(CCOc1ccc(-c2cc(Cc3nnn[nH]3)[nH]n2)cc1)Cc1ccccc1 | 18 |
| CN(C)C(=N)NC(=N)N [METFORMIN] | 12.9 |
| c1ccc(-c2cc(Cc3nnn[nH]3)n[nH]2)cc1 | 10.6 |
| c1ccc2oc(-c3cc(Cc4nnn[nH]4)n[nH]3)cc2c1 | 6.2 |
| Brc1ccc(-c2cc(Cc3nnn[nH]3)[nH]n2)cc1 | 18 |
| CSCCOc1ccc(-c2cc(Cc3nnn[nH]3)[nH]n2)cc1 | 24.6 |
